Assays:
[1] = biological target: T1, CYP11B1 (Homo sapiens, UniProt P15538); assay: (§1) Inhibition of CYP11B1 […] cells using [3H]-11-deoxycorticosterone as substrate incubated for 1 hr prior to substrate addition measured after 25 mins by HPLC analysis; assay type: cell-based; details: human, V79MZ cells expressing CYP11B1, probe [3H]-11-deoxycorticosterone
T1 sequence (P15538 whole entry): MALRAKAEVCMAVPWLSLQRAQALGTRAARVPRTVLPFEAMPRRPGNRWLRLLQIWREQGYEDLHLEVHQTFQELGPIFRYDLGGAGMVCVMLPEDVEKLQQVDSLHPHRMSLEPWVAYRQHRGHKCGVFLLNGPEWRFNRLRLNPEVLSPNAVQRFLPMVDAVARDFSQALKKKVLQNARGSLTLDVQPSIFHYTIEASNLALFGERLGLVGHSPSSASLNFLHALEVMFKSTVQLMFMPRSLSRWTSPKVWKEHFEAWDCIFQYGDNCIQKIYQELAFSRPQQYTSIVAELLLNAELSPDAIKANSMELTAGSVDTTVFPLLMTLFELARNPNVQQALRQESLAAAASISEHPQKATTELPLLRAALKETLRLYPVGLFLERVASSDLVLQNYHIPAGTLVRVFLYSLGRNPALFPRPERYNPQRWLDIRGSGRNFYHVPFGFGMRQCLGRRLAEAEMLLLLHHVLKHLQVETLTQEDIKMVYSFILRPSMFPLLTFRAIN

[2] = biological target: T2, Cytochrome P450 11B2, mitochondrial (Homo sapiens, UniProt P19099); assay: Inhibition of CYP11B2 […] cells using [3H]-11-deoxycorticosterone as substrate incubated for 1 hr prior to substrate addition measured after 45 mins by HPLC analysis; assay type: cell-based
T2 sequence (P19099 whole entry): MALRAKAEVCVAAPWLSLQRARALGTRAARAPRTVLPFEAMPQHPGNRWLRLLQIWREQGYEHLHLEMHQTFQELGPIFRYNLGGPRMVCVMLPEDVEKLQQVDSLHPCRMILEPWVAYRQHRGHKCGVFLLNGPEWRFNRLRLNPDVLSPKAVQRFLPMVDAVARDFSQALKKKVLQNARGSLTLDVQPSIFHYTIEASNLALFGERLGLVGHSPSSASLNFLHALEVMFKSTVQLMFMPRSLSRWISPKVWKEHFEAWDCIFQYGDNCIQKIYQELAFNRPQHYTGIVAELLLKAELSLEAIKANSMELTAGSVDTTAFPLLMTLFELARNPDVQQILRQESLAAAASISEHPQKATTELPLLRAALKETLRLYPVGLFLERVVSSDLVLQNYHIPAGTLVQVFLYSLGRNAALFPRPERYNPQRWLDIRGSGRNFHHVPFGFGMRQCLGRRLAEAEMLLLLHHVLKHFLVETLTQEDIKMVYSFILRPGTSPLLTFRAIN

[3] = biological target: T3, Cytochrome P450 11B1, mitochondrial (Homo sapiens, UniProt P15538); assay: as §1; assay type: cell-based
T3 sequence (P15538 whole entry): T1 sequence (P15538 whole entry)

[4] = biological target: T2, Cytochrome P450 11B2, mitochondrial; assay: Inhibition of CYP11B2 […] cells using [3H]-11-deoxycorticosterone as substrate at 500 nM incubated for 1 hr prior to substrate addition measured after 45 mins by HPLC analysis; assay type: cell-based; details: 0.75 h
[5] = biological target: T4, CYP17 (Homo sapiens, UniProt P05093); assay: Inhibition of human recombinant CYP17 expressed in Escherichia coli using progesterone as substrate at 2 uM; details: probe progesterone
T4 sequence (P05093 whole entry): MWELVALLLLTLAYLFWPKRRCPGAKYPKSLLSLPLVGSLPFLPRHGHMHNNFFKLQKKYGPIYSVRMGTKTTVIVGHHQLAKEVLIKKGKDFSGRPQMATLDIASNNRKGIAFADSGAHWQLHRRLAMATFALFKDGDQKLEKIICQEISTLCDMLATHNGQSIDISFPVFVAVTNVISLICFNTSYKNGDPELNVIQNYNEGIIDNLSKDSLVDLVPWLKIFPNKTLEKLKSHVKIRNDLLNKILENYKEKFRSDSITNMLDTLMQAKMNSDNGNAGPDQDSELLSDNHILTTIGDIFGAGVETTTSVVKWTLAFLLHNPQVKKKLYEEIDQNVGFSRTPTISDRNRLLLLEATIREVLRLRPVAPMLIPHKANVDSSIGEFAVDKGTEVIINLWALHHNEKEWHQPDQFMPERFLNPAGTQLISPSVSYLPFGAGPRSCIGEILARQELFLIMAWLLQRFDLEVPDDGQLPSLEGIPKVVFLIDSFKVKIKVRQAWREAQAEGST

[6] = biological target: T5, CYP19 (aromatase) (Homo sapiens, UniProt P11511); assay: Inhibition of human recombinant CYP19 using [1beta-3H]androstenedione as substrate at 500 nM; details: recombinant CYP19, probe [1beta-3H]androstenedione
T5 sequence (P11511 whole entry): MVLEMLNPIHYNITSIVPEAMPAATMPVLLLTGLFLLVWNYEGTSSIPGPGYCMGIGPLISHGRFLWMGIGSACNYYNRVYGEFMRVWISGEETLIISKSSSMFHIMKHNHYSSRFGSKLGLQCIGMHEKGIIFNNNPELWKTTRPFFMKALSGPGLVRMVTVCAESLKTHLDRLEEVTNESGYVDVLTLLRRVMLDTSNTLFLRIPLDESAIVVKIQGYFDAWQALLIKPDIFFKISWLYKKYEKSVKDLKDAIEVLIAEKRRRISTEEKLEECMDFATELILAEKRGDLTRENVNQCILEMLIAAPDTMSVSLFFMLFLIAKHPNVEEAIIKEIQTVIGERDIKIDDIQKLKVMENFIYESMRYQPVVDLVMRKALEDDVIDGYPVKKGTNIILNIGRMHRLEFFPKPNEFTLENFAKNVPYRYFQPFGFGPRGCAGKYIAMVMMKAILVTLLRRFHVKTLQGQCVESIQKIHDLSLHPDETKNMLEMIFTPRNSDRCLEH

[7] = biological target: T6, Cytochrome P450 11B2, mitochondrial (Rattus norvegicus, UniProt P30099); assay: Inhibition of rat CYP11B2 using [3H]-11-deoxycorticosterone as substrate at 2 uM incubated for 1 hr prior to substrate addition measured after 7 hrs by HPLC analysis
T6 sequence (P30099 whole entry): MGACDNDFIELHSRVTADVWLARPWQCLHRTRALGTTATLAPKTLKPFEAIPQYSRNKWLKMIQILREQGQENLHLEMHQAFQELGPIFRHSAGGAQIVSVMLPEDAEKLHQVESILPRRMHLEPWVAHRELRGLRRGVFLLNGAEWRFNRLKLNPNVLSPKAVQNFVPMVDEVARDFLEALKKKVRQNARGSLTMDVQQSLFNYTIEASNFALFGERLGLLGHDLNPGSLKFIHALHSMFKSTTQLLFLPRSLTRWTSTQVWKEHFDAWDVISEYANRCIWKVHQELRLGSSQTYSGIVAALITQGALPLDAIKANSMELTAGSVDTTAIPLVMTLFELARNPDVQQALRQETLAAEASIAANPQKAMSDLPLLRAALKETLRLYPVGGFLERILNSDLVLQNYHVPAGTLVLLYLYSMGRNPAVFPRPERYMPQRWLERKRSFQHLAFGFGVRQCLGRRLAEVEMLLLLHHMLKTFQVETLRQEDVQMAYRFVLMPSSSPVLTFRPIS

[8] = biological target: T6, Cytochrome P450 11B2, mitochondrial; assay: Inhibition of rat CYP11B2 using [3H]-11-deoxycorticosterone as substrate at 0.5 uM incubated for 1 hr prior to substrate addition measured after 7 hrs by HPLC analysis; details: read-out: INH

Row | Compound | IC50 at 25 min [1] | IC50 [2] | IC50 [3] | inhibition at 0.5 µM [4] | inhibition at 2 µM [5] | inhibition at 0.5 µM [6] | inhibition at 2 µM [7] | inhibition at 0.5 µM [8]
1 | O=C1CSc2cc(-c3cccnc3)ccc2N1 | 525 nM | 12 nM |  |  |  |  |  | 
2 | O=C1NCc2cc(-c3cccnc3)ccc2N1 |  | 228 nM | 120 nM | 72% |  |  |  | 

Second part, the molecule after the results:

Row | IC50 at 25 min [1] | IC50 [2] | IC50 [3] | inhibition at 0.5 µM [4] | inhibition at 2 µM [5] | inhibition at 0.5 µM [6] | inhibition at 2 µM [7] | inhibition at 0.5 µM [8] | Compound
3 |  | 11 nM | 776 nM | 98% | < 10% | 20% |  |  | CN1C(=O)COc2cc(-c3cccnc3)ccc21
4 | 6750 nM | 28 nM |  |  | 20% | 31% | < 5% |  | O=C1CCc2cc(-c3cccnc3)ccc2N1
5 |  |  |  |  |  |  |  | 67% | N#Cc1ccc(C2CCCc3cncn32)cc1 (stereo unspecified) [FADROZOLE]

Source: ChEMBL document CHEMBL3396957, “Heteroatom insertion into 3,4-dihydro-1H-quinolin-2-ones leads to potent and selective inhibitors of human and rat aldosterone synthase” (Eur J Med Chem, 2015)
